# Laboratory results published in ChEMBL document CHEMBL1125499, “Enantiomeric N-substituted N-normetazocines: a comparative study of affinities at sigma, PCP, and mu opioid receptors” (J Med Chem, 1992).
# Key:
# [1] = target: Mu-type opioid receptor (Rattus norvegicus, UniProt P33535); test: Binding affinity against opioid receptor mu using [3H]-DAMGO as radioligand.
# [2] = Binding affinity against sigma opioid receptor using [3H]pentazocine as radioligand.
# [3] = Binding affinity against PCP receptor using [3H]TCP as radioligand.
# [4] = Ratio of binding affinities of pcp receptor(ki(nM)) to sigma opioid receptor(ki(nM))
# [5] = Binding affinity against sigma opioid receptor using [3H](+)-3-PPP as radioligand.
# Mu-type opioid receptor, sequence (P33535 whole entry): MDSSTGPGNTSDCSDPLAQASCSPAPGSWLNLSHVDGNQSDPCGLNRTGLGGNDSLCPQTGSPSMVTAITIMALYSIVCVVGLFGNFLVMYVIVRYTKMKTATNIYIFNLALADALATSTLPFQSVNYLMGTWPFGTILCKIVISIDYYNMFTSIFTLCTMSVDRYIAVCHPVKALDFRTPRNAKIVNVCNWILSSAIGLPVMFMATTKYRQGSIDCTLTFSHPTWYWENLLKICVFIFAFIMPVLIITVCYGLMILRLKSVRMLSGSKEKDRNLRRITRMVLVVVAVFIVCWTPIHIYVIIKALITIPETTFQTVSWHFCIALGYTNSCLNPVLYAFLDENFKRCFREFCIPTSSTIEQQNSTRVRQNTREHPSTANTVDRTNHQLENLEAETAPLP
Compound,Ki [1],Ki [2],Ki [3],Ratio [4],Ki [5]
C[C@H]1[C@H]2Cc3ccc(O)cc3[C@@]1(C)CCN2CCCCc1ccccc1,4 nM,85.2 nM,5960 nM,70,
CC(C)CCN1CC[C@]2(C)c3cc(O)ccc3C[C@@H]1[C@@H]2C,4.9 nM,8.74 nM,2740 nM,313,
C[C@@H]1[C@@H]2Cc3ccc(O)cc3[C@@]1(C)CN2CC1CC1,1240 nM,17.2 nM,153 nM,8.9,
C[C@@H]1[C@@H]2Cc3ccc(O)cc3[C@]1(C)CCN2C,4970 nM,,41 nM,,
C=CCN1CC[C@]2(C)c3cc(O)ccc3C[C@@H]1[C@@H]2C,3.6 nM,> 3000 nM,504 nM,,
CC(C)CCN1CC[C@@]2(C)c3cc(O)ccc3C[C@H]1[C@H]2C,3500 nM,2.25 nM,> 10000 nM,> 4440,
C/C=C\CN1CC[C@]2(C)c3cc(O)ccc3C[C@@H]1[C@@H]2C,11 nM,,1120 nM,,460 nM
C[C@H]1[C@H]2Cc3ccc(O)cc3[C@@]1(C)CCN2Cc1ccccc1,97 nM,36.5 nM,6500 nM,,
C/C=C/CN1CC[C@]2(C)c3cc(O)ccc3C[C@@H]1[C@@H]2C,9 nM,,347 nM,,
C/C=C/CN1CC[C@@]2(C)c3cc(O)ccc3C[C@H]1[C@H]2C,5620 nM,,179 nM,,52.5 nM
C=C[C@H](C)N1CC[C@@]2(C)c3cc(O)ccc3C[C@H]1[C@H]2C,2270 nM,,90 nM,,159 nM
CC#CCN1CC[C@]2(C)c3cc(O)ccc3C[C@@H]1[C@@H]2C,5.1 nM,,360 nM,,
C[C@H]1[C@H]2Cc3ccc(O)cc3[C@]1(C)CCN2CCc1ccccc1,0.2 nM,61.7 nM,1880 nM,30.5,
C[C@H]1[C@H]2Cc3ccc(O)cc3[C@@]1(C)CCN2CCCc1ccccc1,20 nM,38.6 nM,3600 nM,93.3,
C[C@@H]1[C@@H]2Cc3ccc(O)cc3[C@]1(C)CCN2C/C=C/Cl,1980 nM,10.5 nM,250 nM,24,
C[C@@H]1[C@@H]2Cc3ccc(O)cc3[C@]1(C)CCN2CCCc1ccccc1,343 nM,1.15 nM,9700 nM,8440,
C[C@H]1[C@H]2Cc3ccc(O)cc3[C@@]1(C)CCN2,23 nM,5580 nM,197 nM,,

Compound,Ki [1],Ki [2],Ki [3],Ratio [4],Ki [5]
CC(C)=CCN1CC[C@]2(C)c3cc(O)ccc3C[C@H]1[C@H]2C [(+)-PENTAZOCINE],,,4040 nM,1300,
C[C@@H]1[C@@H]2Cc3ccc(O)cc3[C@]1(C)CCN2,470 nM,,30 nM,,
CC#CCN1CC[C@@]2(C)c3cc(O)ccc3C[C@H]1[C@H]2C,1000 nM,,1230 nM,,93.7 nM
C[C@@H]1[C@@H]2Cc3ccc(O)cc3[C@@]1(C)CCN2CCc1ccccc1,55 nM,3.9 nM,> 10000 nM,> 2560,
C=C[C@H](C)N1CC[C@]2(C)c3cc(O)ccc3C[C@@H]1[C@@H]2C,3 nM,,2200 nM,,
C[C@H]1[C@H]2Cc3ccc(O)cc3[C@]1(C)CCN2CC1CC1 [CYCLAZOCINE],0.18 nM,,107 nM,,
C[C@H]1[C@H]2Cc3ccc(O)cc3[C@@]1(C)CCN2C/C=C/Cl,1.5 nM,403 nM,470 nM,1.2,
C[C@@H]1[C@@H]2Cc3ccc(O)cc3[C@]1(C)CCN2CCCCCc1ccccc1,260 nM,2.64 nM,> 10000 nM,> 3790,
CC(C)=CCN1CC[C@@]2(C)c3cc(O)ccc3C[C@@H]1[C@@H]2C,13 nM,,842 nM,10.1,
C=CCN1CC[C@@]2(C)c3cc(O)ccc3C[C@H]1[C@H]2C,> 10000 nM,,225 nM,,
C/C=C\CN1CC[C@@]2(C)c3cc(O)ccc3C[C@H]1[C@H]2C,1690 nM,,381 nM,,
C=C[C@@H](C)N1CC[C@]2(C)c3cc(O)ccc3C[C@@H]1[C@@H]2C,5.9 nM,,1900 nM,,
C[C@H]1[C@H]2Cc3ccc(O)cc3[C@@]1(C)CCN2C,11 nM,,1190 nM,,
C[C@@H]1[C@@H]2Cc3ccc(O)cc3[C@]1(C)CCN2CCCCc1ccccc1,270 nM,3.23 nM,> 10000 nM,3100,
C[C@@H]1[C@@H]2Cc3ccc(O)cc3[C@]1(C)CCN2Cc1ccccc1,1610 nM,0.67 nM,> 10000 nM,,
C=C[C@@H](C)N1CC[C@@]2(C)c3cc(O)ccc3C[C@H]1[C@H]2C,690 nM,,200 nM,,
C[C@H]1[C@H]2Cc3ccc(O)cc3[C@@]1(C)CCN2CCCCCc1ccccc1,68 nM,38.5 nM,> 10000 nM,260,
